Data: patent US20260216138A1, “IDENTIFICATION OF OTUD7B INHIBITOR 7BI AND ITS APPLICATION IN REDUCING GROWTH OF NSCLC AND LEUKEMIA CELLS” (The University of North Carolina at Chapel Hill, priority 2023, published 2026)

What was measured:
[1] = test system: GβL binding with mTORC2 components (Sin1, Rictor, mTOR); assay: GβL binding with mTORC2 components (HA-IP, HEK293 cells); format: cell-based; settings: indicated doses of 7Bi, 16 hrs
Method: Cells were harvested and lysed in EBC buffer (50 mM Tris pH 7.5, 120 mM NaCl, 0.5% NP-40) supplemented with protease inhibitor cocktail (EDTA-free, mini-tablet) (Bimake) and phosphatase inhibitor cocktail (Bimake) by rotating in the cold room for 10 min followed by high-speed centrifugation at 4° C. The protein concentrations in supernatants of whole cell lysates were measured by NanoDrop OneC using the Bio-Rad Bradford protein assay reagent. Equal amounts of whole cell lysates were resolved on SDS-PAGE and immunoblotted with indicated antibodies. For immunoprecipitation analysis, 1 mg of total cell lysate was incubated with the indicated beads for 3-4 hr at 4° C. The recovered immuno-complexes were washed thoroughly three times with NETN buffer (20 mM Tris, pH 8.0, 100 mM NaCl, 1 mM EDTA and 0.5% NP-40) before being resuspended in SDS sample buffer and resolved on SDS-PAGE and immunoblotted with indicated antibodies.

USP21 = biological target: T1, USP21 (Homo sapiens, UniProt Q9UK80); assay: In vitro USP21 deubiquitination assay, K11-linked di-ub cleavage; format: biochemical; settings: 80 nM USP21, 10 min
T1 construct: USP21 (residues 196-565); GST (N, cleaved yes); made in house; host or cells: E. coli BL21-Codon Plus (DE3)-RIL
T1 sequence (Q9UK80 196-565): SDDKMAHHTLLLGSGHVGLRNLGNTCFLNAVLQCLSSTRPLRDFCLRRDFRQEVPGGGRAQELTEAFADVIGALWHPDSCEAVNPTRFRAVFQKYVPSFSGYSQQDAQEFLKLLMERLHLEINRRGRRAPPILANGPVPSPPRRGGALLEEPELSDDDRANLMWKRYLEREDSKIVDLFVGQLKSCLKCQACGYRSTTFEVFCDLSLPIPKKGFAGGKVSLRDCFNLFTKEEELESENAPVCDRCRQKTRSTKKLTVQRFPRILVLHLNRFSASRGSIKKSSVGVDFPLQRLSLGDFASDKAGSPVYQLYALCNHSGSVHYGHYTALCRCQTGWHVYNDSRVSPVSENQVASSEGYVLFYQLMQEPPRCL
Description: (§1) OTUD7B (residues 56-446), OTUD7A (residues 1-462), USP21 (residues 196-565), and USP9X (residues 1551-1970) proteins were expressed in E. Coli BL21-Codon Plus (DE3)-RIL cells. Through an N-terminal GST tag, the DUBs were purified by affinity chromatography using glutathione sepharose 4B (GS4B) resin. Following the liberation of the DUB from the GST tag. the DUBs were subjected to size exclusion chromatography (SEC). To form the K11-linked di-ub, individual ubiquitins (K11R-substituted donor Ub and ΔGG acceptor ubiquitin) were purified and fluorescently-labeled on an N-terminal cysteine using either Cy3- (donor) or Cy5-maleimide (acceptor). The different ubiquitins were then added to a mixture containing UBA1, UBE2S, and MgATP to form di-ub. After an overnight incubation at room temperature, UBE2S was removed by cation-exchange chromatography and the di-ub was purified by SEC. These proteins were used to monitor DUB activity in the presence or absence of the various inhibitors. The inhibitors were incubated with DUBs in a reaction buffer (20 mM Hepes pH=8.0, 200 mM NaCl, 0.25 mg/mL BSA and 0.005% Tween-20) for 5 min at room temperature and then 0.5 uM fluorescently-labeled di-ub (K11-linked) was added to start the reaction. 5×SDS-PAGE loading buffer was used to quench the reaction at the indicated time point. […] Mono-ubiquitin was quantified to generate an IC50 value. […]

USP9X = biological target: T2, USP9X (Homo sapiens, UniProt Q93008); assay: In vitro USP9X deubiquitination assay, K11-linked di-ub cleavage; format: biochemical
T2 construct: USP9X (residues 1551-1970); GST (N, cleaved yes); made in house; host or cells: E. coli BL21-Codon Plus (DE3)-RIL
T2 sequence (Q93008 1551-1970): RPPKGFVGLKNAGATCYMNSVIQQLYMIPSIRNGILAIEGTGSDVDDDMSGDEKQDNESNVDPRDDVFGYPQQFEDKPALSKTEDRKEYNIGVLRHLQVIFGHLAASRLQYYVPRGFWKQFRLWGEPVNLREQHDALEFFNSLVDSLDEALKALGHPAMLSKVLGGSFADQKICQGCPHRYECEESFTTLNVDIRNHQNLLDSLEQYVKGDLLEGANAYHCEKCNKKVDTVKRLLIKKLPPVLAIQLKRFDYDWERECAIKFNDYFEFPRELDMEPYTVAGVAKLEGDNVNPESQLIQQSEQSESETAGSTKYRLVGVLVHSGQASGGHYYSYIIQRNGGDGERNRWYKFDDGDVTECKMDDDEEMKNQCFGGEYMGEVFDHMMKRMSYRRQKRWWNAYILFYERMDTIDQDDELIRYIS
Description: as §1

HEK293 cells = assay: Cell viability by MTT assay in HEK293 cells; format: cell-based; settings: 72 hrs
Method: (§2) 2,000 cells from indicated NSLC cell lines were seeded into each well of 96-well plates. Cell viability was measured 3 days post-treatment using MTT assays following manufacturer's instruction. For cell viability assays with inhibitor treatment, 2,000 cells from indicated NSLC and HEK293 cell lines were seeded in 96-well plate. Inhibitor was added the next day at indicated concentration and cell viability was measured after 3-day treatment. For cell proliferation assays in THP1, K562 and HL60 cell lines, 1×10^6 cells from each indicated cell line were seeded in 12.5 cm2 cell culture flask and cells were counted by hemocytometer under microscope at indicated time to monitor cell proliferation. To test inhibitor effects on THP1, K562 and HL60 cell growth, 2×10^5 cells were seeded in 12.5 cm2 cell culture flask. Inhibitor was added the next day at indicated concentrations and cell number was counted after 3 days treatment. Three independent experiments were performed to generate error bars.

HL60 cells = assay: Leukemia cell proliferation, HL60; format: cell-based; settings: 72 hrs
Method: as §2

Cc1cc(NC(=O)c2cnn(C)c2C(=O)Nc2cc(C)nn2C2CCCC2)n(C2CCCC2)n1 [7Bi]
GβL binding with mTORC2 components (Sin1, Rictor, mTOR) [1]: attenuated GβL binding with mTORC2 components | inhibition of USP21 (USP21): failed to inhibit | inhibition of USP9X (USP9X): failed to inhibit | cell growth (MTT) (HEK293 cells): reduced growth | cell proliferation (HL60 cells): reduced proliferation
